Measurements: PMC11345841, “Exploring 2-Sulfonylpyrimidine Warheads as Acrylamide Surrogates for Targeted Covalent Inhibition: A BTK Story” (Journal of Medicinal Chemistry, 2024)
Where two headings read alike, the source gives them in different places.

What was measured:
FLT3(D835H) = target: T1, FLT3(D835H) (Homo sapiens, UniProt P36888, D835H); experiment: KINOMEscan ScanTK; type: binding
T1 construct: purchased Eurofins DiscoverX KINOMEscan (scanTK)
T1 sequence (P36888 27-993 D835H): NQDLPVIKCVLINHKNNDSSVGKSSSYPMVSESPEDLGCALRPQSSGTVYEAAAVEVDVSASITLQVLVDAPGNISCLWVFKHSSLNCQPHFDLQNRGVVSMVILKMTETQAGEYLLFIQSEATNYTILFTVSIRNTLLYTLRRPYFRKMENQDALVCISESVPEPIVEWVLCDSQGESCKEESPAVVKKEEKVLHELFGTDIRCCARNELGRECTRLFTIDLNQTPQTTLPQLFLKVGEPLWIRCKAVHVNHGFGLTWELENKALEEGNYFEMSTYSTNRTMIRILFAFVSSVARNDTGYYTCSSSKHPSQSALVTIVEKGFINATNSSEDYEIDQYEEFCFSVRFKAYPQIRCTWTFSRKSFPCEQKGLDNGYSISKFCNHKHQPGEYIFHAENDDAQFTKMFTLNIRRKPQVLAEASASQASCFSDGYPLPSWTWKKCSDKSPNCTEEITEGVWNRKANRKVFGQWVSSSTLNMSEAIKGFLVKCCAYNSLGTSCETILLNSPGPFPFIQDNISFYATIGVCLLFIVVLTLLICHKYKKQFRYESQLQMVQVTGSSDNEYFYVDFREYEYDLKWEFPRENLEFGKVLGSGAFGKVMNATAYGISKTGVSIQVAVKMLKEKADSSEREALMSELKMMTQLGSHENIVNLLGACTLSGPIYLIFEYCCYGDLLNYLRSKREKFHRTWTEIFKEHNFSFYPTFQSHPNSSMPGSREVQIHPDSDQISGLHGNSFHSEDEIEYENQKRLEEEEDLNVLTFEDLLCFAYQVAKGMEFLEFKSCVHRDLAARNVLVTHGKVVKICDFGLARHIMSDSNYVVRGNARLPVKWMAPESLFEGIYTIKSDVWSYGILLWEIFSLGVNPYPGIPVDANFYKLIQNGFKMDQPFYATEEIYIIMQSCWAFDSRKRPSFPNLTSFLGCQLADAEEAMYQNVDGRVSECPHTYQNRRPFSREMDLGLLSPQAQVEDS

[1] = Electrophilic reactivity assessment (GSH assay); conditions: for stability/reactivity with 10-fold excess of GSH in PBS: up to 6 h at 20 °C, LC-MS
Method: Final volume: 1200 μL; final composition: 100 μM compound, 100 μM standard, 1 mM GSH, 5% v/v DMSO. The resulting mixture was kept at 20 °C. Reaction monitoring and rate determination: LC-MS traces of the mixture were acquired every 10 min. Normalized integrations of the starting material and/or product were plotted as a function of time (s), using the 4-hydroxybenzoic acid peak as standard for integral calibration/normalization, allowing extraction of pseudo-first-order reaction rate constants (k’). All measurements were performed in triplicate.

FGR = target: T2, FGR (Homo sapiens, UniProt P09769); experiment: KINOMEscan ScanTK; type: binding
T2 construct: purchased Eurofins DiscoverX KINOMEscan (scanTK)
T2 sequence (P09769 whole entry): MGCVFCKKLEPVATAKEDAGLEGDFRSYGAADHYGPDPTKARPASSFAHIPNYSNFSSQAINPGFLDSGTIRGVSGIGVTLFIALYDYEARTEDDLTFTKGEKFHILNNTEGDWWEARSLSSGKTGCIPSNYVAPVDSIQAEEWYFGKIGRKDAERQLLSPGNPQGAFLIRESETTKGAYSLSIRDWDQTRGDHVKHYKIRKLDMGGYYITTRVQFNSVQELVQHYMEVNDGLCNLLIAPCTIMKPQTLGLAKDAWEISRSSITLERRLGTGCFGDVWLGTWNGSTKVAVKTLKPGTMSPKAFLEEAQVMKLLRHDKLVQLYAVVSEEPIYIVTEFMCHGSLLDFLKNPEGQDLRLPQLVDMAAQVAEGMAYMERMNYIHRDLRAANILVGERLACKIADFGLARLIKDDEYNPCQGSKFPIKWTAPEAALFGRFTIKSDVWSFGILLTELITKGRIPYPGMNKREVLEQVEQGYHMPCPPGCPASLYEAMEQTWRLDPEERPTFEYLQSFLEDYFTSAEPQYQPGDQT

wild-type BTK = wild-type BTK (Homo sapiens, UniProt Q06187); experiment: NanoBRET target engagement assay in HEK293 cells; conditions: for NanoBRET IC50: HEK293 cells, 1 h treatment
wild-type BTK, sequence (Q06187 whole entry): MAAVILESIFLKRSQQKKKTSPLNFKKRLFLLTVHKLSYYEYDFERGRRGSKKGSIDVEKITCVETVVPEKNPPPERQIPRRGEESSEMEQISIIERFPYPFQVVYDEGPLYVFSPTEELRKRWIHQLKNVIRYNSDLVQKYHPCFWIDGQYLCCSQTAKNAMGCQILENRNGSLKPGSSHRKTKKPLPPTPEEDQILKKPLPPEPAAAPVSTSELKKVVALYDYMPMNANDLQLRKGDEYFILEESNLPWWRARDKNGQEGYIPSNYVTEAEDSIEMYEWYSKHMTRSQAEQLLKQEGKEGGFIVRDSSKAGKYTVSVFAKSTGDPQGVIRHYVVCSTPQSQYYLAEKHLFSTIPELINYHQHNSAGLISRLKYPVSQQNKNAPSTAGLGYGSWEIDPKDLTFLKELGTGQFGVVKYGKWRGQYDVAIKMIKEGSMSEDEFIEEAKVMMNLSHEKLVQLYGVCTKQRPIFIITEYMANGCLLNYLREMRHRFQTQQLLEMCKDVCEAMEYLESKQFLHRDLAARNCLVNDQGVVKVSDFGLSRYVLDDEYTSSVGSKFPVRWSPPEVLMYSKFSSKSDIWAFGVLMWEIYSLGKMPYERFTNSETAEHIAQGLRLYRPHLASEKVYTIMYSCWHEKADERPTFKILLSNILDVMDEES

[2] = test system: full-length wild-type BTK; experiment: Intact protein mass spectrometry, covalent modification; type: binding; conditions: 2:1 ratio of compound to protein (40 μM/20 μM), 23 °C
Method: The proteins were injected into the sample loop and desalted for 3 min at 100 μL/min using water (0.1% formic acid) on an in-house packed POROS 20R-2 trap. Proteins were eluted into the mass spectrometer using a 15–70% ACN (0.1% formic acid) gradient in 10 min at a flow rate of 100 μL/min. Mass spectra were acquired using a Waters Synapt HDMSE mass spectrometer operated in TOF-only mode with a standard electrospray source, capillary voltage of 3200 V, and a cone voltage of 40 V with a mass range of 50–2000 m/z. Intact mass values for both free and labeled wild-type BTK were calculated from the raw m/z spectra using MaxEnt1 within MassLynx 4.1 (Waters) with a resolution of 0.05 Da and an output mass range of 65,000–85 000 Da.

OCI-LY7 cells = experiment: Anti-IgM-induced Ca2+ flux assay; type: cell-based, human; conditions: 1 h pretreatment, 1000 nM or lower concentrations
Method: The effects of compounds on Ca^2+ release were then analyzed following treatment of OCI-LY7 cells (derived from a diffuse large B-cell lymphoma (DLBCL)) with anti-IgM to cross-link surface IgM (sIgM). […] For 8a and 8d, we performed similar experiments at lower concentrations.
Flow cytometry was performed using a FACS Canto II system (BD Biosciences). Data was acquired for 30 s before cells were stimulated with goat antihuman F(ab’)2 anti-IgM and data were acquired for a further 3.5 min. Cells were then treated with ionomycin (1 μM; Merck) and data were acquired for 2 min. Calcium responses were quantified by calculating area under the curve (AUC) in FlowJo (Becton Dickinson) from the point of addition of anti-IgM to the addition of ionomycin.

CSK = target: T3, CSK (Homo sapiens, UniProt P41240); experiment: KINOMEscan ScanTK; type: binding
T3 construct: purchased Eurofins DiscoverX KINOMEscan (scanTK)
T3 sequence (P41240 whole entry): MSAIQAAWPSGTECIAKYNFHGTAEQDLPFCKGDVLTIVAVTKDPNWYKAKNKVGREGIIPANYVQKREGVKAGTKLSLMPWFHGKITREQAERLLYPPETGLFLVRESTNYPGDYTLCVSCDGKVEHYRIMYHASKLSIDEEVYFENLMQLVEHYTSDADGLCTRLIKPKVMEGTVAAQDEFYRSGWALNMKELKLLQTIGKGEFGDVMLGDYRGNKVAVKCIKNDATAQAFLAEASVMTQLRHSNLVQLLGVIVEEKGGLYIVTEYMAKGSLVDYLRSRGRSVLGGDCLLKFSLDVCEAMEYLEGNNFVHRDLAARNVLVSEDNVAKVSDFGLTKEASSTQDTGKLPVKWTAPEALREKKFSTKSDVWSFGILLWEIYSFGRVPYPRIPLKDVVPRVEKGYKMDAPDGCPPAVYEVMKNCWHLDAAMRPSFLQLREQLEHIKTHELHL

FGFR3(G697C) = target: T4, FGFR3(G697C) (Homo sapiens, UniProt P22607, G697C); experiment: KINOMEscan ScanTK; type: binding
T4 construct: purchased Eurofins DiscoverX KINOMEscan (scanTK)
T4 sequence (P22607 23-806 G697C): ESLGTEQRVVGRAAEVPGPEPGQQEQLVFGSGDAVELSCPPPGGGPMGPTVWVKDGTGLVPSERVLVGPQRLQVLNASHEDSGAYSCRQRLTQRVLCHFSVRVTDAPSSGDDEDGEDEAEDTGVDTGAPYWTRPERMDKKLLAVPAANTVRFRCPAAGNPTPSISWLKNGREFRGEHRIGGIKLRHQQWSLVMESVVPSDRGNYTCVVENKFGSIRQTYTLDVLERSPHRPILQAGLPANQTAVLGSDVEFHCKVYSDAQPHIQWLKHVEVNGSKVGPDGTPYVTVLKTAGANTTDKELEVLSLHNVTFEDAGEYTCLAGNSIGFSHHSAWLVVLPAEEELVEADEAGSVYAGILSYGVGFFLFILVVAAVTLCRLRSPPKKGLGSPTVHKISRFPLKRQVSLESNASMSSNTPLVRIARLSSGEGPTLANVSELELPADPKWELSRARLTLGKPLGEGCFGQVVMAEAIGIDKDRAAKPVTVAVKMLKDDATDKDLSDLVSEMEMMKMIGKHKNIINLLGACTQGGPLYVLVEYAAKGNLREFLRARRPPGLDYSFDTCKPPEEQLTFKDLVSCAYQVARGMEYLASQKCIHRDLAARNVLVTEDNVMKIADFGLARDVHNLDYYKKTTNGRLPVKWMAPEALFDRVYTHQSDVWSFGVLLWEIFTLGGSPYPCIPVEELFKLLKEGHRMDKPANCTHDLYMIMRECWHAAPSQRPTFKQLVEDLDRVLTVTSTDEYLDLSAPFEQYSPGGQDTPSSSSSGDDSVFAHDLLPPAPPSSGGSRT

FRK = target: T5, FRK (Homo sapiens, UniProt P42685); experiment: KINOMEscan ScanTK; type: binding
T5 construct: purchased Eurofins DiscoverX KINOMEscan (scanTK)
T5 sequence (P42685 whole entry): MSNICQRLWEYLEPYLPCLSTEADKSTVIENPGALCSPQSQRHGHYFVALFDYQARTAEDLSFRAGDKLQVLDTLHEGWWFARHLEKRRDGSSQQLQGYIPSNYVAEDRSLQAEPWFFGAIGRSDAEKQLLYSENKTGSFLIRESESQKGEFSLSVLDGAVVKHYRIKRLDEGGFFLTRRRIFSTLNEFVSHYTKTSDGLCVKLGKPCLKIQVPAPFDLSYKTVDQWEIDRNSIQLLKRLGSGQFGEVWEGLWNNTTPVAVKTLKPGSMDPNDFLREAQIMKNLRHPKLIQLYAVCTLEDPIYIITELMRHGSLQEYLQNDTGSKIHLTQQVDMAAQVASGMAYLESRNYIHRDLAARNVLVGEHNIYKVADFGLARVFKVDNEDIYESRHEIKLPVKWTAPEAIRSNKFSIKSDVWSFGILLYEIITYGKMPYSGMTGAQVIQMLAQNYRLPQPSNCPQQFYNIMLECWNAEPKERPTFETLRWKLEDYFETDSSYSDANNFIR

EGFR(G719C) = target: T6, EGFR(G719C) (Homo sapiens, UniProt P00533, G719C); experiment: KINOMEscan ScanTK; type: binding
T6 construct: purchased Eurofins DiscoverX KINOMEscan (scanTK)
T6 sequence (P00533 25-1210 G719C): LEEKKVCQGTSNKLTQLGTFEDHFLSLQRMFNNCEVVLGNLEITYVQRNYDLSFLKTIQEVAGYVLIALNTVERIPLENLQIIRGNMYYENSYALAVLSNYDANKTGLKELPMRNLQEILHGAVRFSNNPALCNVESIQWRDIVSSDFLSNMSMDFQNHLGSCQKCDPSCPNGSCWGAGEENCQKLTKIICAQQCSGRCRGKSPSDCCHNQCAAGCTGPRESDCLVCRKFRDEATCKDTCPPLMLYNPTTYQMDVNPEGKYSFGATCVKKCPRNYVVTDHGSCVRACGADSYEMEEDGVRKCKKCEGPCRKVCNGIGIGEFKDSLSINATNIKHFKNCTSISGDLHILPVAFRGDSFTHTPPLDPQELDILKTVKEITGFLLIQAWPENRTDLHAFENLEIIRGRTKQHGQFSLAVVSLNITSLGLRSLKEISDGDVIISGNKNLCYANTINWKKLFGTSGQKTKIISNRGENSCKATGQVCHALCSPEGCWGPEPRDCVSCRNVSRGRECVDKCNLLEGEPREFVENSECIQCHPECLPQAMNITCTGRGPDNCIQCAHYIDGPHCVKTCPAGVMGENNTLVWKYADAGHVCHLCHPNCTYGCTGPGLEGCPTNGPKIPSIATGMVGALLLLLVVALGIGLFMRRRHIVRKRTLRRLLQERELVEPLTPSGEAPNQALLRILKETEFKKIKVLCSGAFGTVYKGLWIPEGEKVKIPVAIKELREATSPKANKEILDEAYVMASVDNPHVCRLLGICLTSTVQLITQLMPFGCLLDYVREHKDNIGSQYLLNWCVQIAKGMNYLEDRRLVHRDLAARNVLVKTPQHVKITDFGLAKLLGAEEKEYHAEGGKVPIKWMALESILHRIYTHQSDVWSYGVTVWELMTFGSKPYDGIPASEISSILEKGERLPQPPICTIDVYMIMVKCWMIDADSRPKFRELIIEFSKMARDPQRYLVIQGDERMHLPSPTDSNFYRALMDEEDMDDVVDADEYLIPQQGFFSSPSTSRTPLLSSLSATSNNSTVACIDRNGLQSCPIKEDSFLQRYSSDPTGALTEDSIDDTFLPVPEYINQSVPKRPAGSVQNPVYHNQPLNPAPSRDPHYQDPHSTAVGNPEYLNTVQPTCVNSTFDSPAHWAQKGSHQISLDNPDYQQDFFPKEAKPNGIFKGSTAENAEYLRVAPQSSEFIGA

Plasma stability assay = type: in vitro ADME; conditions: 3 h incubation at 37 °C; 50% human plasma; 1 μM compound

Row | Structure (SMILES) | difference in %Control from compound Ib at 1 µM (FLT3(D835H); @1000nM) [%] | remaining binding at 1 µM (FLT3(D835H); @1000nM, read-out: %Control) [%] | remaining binding at 1 µM (FLT3(D835H); read-out: %Control @1000nM) [%] | stability/reactivity with 10-fold excess of GSH in PBS [1] | difference in %Control versus compound Ib at 1 µM (FGR; @1000nM) [%] | remaining binding at 1 µM (FGR; @1000nM, read-out: %Control) [%] | remaining binding at 1 µM (FGR; read-out: %Control @1000nM) [%] | NanoBRET IC50 (wild-type BTK) | difference in %Control from reference compound Ib at 1 µM (CSK; @1000nM) [%] | remaining binding at 1 µM (CSK; @1000nM, read-out: %Control) [%] | remaining binding at 1 µM (CSK; read-out: %Control @1000nM) [%] | difference in %Control versus compound Ib at 1 µM (FGFR3(G697C); @1000nM) [%] | remaining binding at 1 µM (FGFR3(G697C); @1000nM, read-out: %Control) [%] | remaining binding at 1 µM (FGFR3(G697C); read-out: %Control @1000nM) [%] | difference in %Control versus compound Ib at 1 µM (FRK; @1000nM) [%] | remaining binding at 1 µM (FRK; @1000nM, read-out: %Control) [%] | remaining binding at 1 µM (FRK; read-out: %Control @1000nM) [%] | difference in %Control vs compound Ib at 1 µM (EGFR(G719C); @1000nM) [%] | remaining binding at 1 µM (EGFR(G719C); @1000nM, read-out: %Control) [%] | remaining binding at 1 µM (EGFR(G719C); read-out: %Control @1000nM) [%] | also measured
1 | CNC(=O)c1cnc(S(C)(=O)=O)nc1N1CCCC(n2nc(-c3ccc(Oc4ccccc4)cc3)c3c(N)ncnc32)C1 (centres unmarked) [Compound 8d, 4-(3-(4-Amino-3-(4-phenoxyphenyl)-1H-pyrazolo[3,4-d]pyrimidin-1-yl)piperidin-1-yl)-N-methyl-2-(methylsulfonyl)pyrimidine-5-carboxamide] | 47 | 83 | 83 | mild reactivity | 10.7 | 16 | 16 | low to subnanomolar | 3.6 | 8.1 | 8.1 | 47 | 87 | 87 | 33.7 | 43 | 43 | -0.45 | 0.65 | 0.65 | pseudo-first-order rate constant kGSH/PBS ([1]; 100 μM compound, 1 mM GSH, PBS pH 7.4, 20 °C, triplicate): 47 × 10^–5 ± 0.5 × 10^–5 s^–1; covalent modification of full-length WT BTK (intact mass) [2]: clean and quantitative modification in under an hour; effect on anti-IgM-induced Ca2+ flux (OCI-LY7 cells): maintained for these compounds at concentrations down to 250 nM
2 | CCOC(=O)c1cnc(S(C)(=O)=O)nc1N1CCC[C@@H](n2nc(-c3ccc(Oc4ccccc4)cc3)c3c(N)ncnc32)C1 [Compound 8c, Ethyl (R)-4-(3-(4-Amino-3-(4-phenoxyphenyl)-1H-pyrazolo[3,4-d]pyrimidin-1-yl)piperidin-1-yl)-2-(methylsulfonyl)pyrimidine-5-carboxylate] | 60 | 96 | 96 |  | 13.7 | 19 | 19 |  | 25.5 | 30 | 30 | 50 | 90 | 90 | 66.7 | 76 | 76 | 6.4 | 7.5 | 7.5 | % compound remaining, human plasma stability (Plasma stability assay): 20–50%
3 | Cc1cnc(S(C)(=O)=O)nc1N1CCCC(n2nc(-c3ccc(Oc4ccccc4)cc3)c3c(N)ncnc32)C1 (centres unmarked) [Compound 8a, 1-(1-(5-Methyl-2-(methylsulfonyl)pyrimidin-4-yl)piperidin-3-yl)-3-(4-phenoxyphenyl)-1H-pyrazolo[3,4-d]pyrimidin-4-amine] | 32 | 68 | 68 | fully stable | 3.3 | 8.6 | 8.6 | low to subnanomolar | 2.1 | 6.6 | 6.6 | 57 | 97 | 97 | 38.7 | 48 | 48 | 32.9 | 34 | 34 | IC50 (wild-type BTK): 8 ± 9 nM; effect on anti-IgM-induced Ca2+ flux (OCI-LY7 cells): maintained for these compounds at concentrations down to 250 nM
4 | C=CC(=O)N1CCC[C@@H](n2nc(-c3ccc(Oc4ccccc4)cc3)c3c(N)ncnc32)C1 [Compound 1g, Ibrutinib, reference compound] |  | 36 | 36 |  |  |  |  |  |  | 4.5 | 4.5 |  | 40 | 40 |  | 9.3 | 9.3 |  |  |  | %Control @1000nM (FGR): 5.3%; %Control (FGR; @1000nM): 5.3%; covalent modification of full-length WT BTK (intact mass) [2]: modified full-length BTK
5 | COC(=O)c1cnc(S(C)(=O)=O)nc1N1CCCC(n2nc(-c3ccc(Oc4ccccc4)cc3)c3c(N)ncnc32)C1 (centres unmarked) [Compound 8b, Methyl 4-(3-(4-Amino-3-(4-phenoxyphenyl)-1H-pyrazolo[3,4-d]pyrimidin-1-yl)piperidin-1-yl)-2-(methylsulfonyl)pyrimidine-5-carboxylate] | 38 | 74 | 74 |  | 20.7 | 26 | 26 |  | 21.5 | 26 | 26 | 44 | 84 | 84 | 69.7 | 79 | 79 | 1.7 | 2.8 | 2.8 | IC50 (wild-type BTK): 38 ± 6 nM; % compound remaining, human plasma stability (Plasma stability assay): 20–50%
